The values below are quoted from earlier work in patent US20180369136A1, “DEVICES AND METHODS FOR TRANSDERMAL TREATMENT OF BASAL CELL CARCINOMA” (NORTH CAROLINA STATE UNIVERSITY, priority 2015, published 2018).

SMILES strings stand for the structures.

For data set [1], the system named is immunosuppressed syngeneic mice. The conditions noted are these: in vivo.
The subject of a further data set is yeast and bacteria cells. The conditions noted are these: in vitro.
Data set [2] deals with basal cell carcinoma tumor. Particulars: oral itraconazole.
Data set [3] concerns Hedgehog signaling in basal cell carcinoma. The conditions noted are these: basal cell carcinoma in vitro model.

For `O=c1[nH]cc(F)c(=O)[nH]1` [fluorouracil, 5-fluorouracil], the mutagenicity entry was “causes mutations” in data set [1]; “causes mutations” with yeast and bacteria cells.
For `CCC(C)n1ncn(-c2ccc(N3CCN(c4ccc(OCC5COC(Cn6cncn6)(c6ccc(Cl)cc6Cl)O5)cc4)CC3)cc2)c1=O` (stereo not drawn) [itraconazole], the side effects entry in data set [2] is “grade 4 congestive heart failure”. Besides, under “ethanol and water”, the “solubility in ethanol and water” value is recorded as “poor solubility”.
As for `C=C1CC[C@H](O)C/C1=C/C=C1\CCC[C@]2(C)[C@@H]([C@H](C)CCCC(C)C)CC[C@@H]12` [vitamin D3], the Hedgehog signaling entry in data set [3] is “suppress Hedgehog signaling”. Moreover, the “solubility in aqueous media” value (aqueous media) is listed as “does not readily dissolve”.
